In patent US8889727B2, “Topical antifungal agent” (Meiji Seika Pharma Co., Ltd., priority 2011, dated 2014):
Values after ≈ are worked out from the molar mass of the structure shown.

Assays:
[1] = test system: T. rubrum ATCC10218; assay: Measurement of antifungal activity (MIC, WST8 growth inhibition); assay type: cell-based; details: Trichophyton rubrum, 96 h; 80% growth inhibition concentration; T. rubrum ATCC10218, RPMI1640/MOPS, 28° C., 4 days
Method: (§1) The compounds for evaluation were dissolved in dimethyl sulfoxide (DMSO) and used. As the test medium, RPMI1640 medium containing 0.165 M 3-morpholino propane sulfonic acid (MOPS) was used. As the test strain, T. mentagrophytes ATCC18748 or T. rubrum ATCC10218 was used. 100 μL of the test strain each at a concentration of 1×10^4 conidia/mL was dispensed, mixed with compounds for evaluation on 96 well half area plate so that the concentration of DMSO becomes 1%, and cultured at 28° C. for 3 days (for T. mentagrophytes) or for 4 days (for T. rubrum). Then, 5 μL of Cell Counting Kit8 (WST8) was added and the absorbances at 450 nm and 595 nm was measured as background. Subsequently, they were incubated at 28° C. for 5 hours (for T. mentagrophytes) or overnight (for T. rubrum) to color, and again the absorbances at 450 nm and 595 nm was measured, and then calculated the growth inhibition percentages using the differences from the background, and 80% growth inhibition concentration was regarded as MIC (μg/ml). Measurement of antifungal activity was conducted by the following method. Compounds for evaluation were dissolved in dimethyl sulfoxide (DMSO) and used. As the test medium, RPMI1640 medium containing 0.165 M 3-morpholinopropane sulfonic acid (MOPS) was used. As the test strain, T. mentagrophytes ATCC18748 or T. rubrum ATCC10218 was used. 100 μL of the test strain was dispensed at a concentration of 1×10^4 conidia/mL, mixed with compounds for evaluation on 96 well half area plate so that the concentration of DMSO becomes 1%, and cultured at a culture temperature of 28° C. for 3 days (for T. mentagrophytes) or for 4 days (for T. rubrum). Then, 5 μL of Cell Counting Kit8 (WST8) was added and the absorbances at 450 nm and 595 nm was measured as background. Subsequently, they were incubated at 28° C. for 5 hours (for T. mentagrophytes) or overnight (for T. rubrum), and again measured the absorbances at 450 nm and 595 nm was measured, and then calculated the growth inhibition percentages using the differences from the background, and 80% growth inhibition concentration was regarded as MIC (μg/ml).

[2] = test system: T. mentagrophytes ATCC18748; assay: as above; assay type: cell-based; details: Trichophyton mentagrophytes, 72 h; 80% growth inhibition concentration; T. mentagrophytes ATCC18748, RPMI1640/MOPS, 28° C., 3 days
Method: as §1

Row | MIC [1] [µg/mL] | MIC [2] [µg/mL] | Structure (SMILES) | inhibition of growth at 32 µg/mL [2] [%]
1 | > 64 | 16 to 32 (≈ 91.8 to 184 µM) | Cc1ccnn1-c1ccccc1O [Example 8, 2-(5-Methyl-1H-pyrazol-1-yl)phenol] | 
2 | > 64 |  | CC(C)(C)c1cc(N)n(-c2ccccc2O)n1 [Example 10, 2-(5-Amino-3-tert-butyl-1H-pyrazol-1-yl)phenol] | 50 to 80
3 | 4 to 16 (≈ 18.5 to 74 µM) | 2 to 8 (≈ 9.25 to 37 µM) | CCc1cc(CC)n(-c2ccccc2O)n1 [Example 14, 2-(3,5-Diethyl-1H-pyrazol-1-yl)phenol] | 
4 | 16 to 32 (≈ 78.3 to 157 µM) | 16 to 32 (≈ 78.3 to 157 µM) | Cc1cc(C)n(-c2cccc(O)c2O)n1 [Example 15, 3-(3,5-Dimethyl-1H-pyrazol-1-yl)benzene-1,2-diol] | 
5 | 4 to 16 (≈ 18.2 to 72.6 µM) | 2 to 8 (≈ 9.08 to 36.3 µM) | Cc1nn(-c2ccc(F)cc2O)c(C)c1C [Example 18, 5-Fluoro-2-(3,4,5-trimethyl-1H-pyrazol-1-yl)phenol] | 
6 | 16 to 32 (≈ 67 to 134 µM) | 16 to 32 (≈ 67 to 134 µM) | Cc1nn(-c2cc(O)ccc2O)c(C)c1Cl [Example 19, 2-(4-Chloro-3,5-dimethyl-1H-pyrazol-1-yl)benzene-1,4-diol] | 
7 | 32 to 64 (≈ 117 to 233 µM) | 16 to 32 (≈ 58.3 to 117 µM) | COC(=O)CCc1c(C)nn(-c2ccccc2O)c1C [Example 23, Methyl 3-(1-(2-hydroxyphenyl)-3,5-dimethyl-1H-pyrazol-4-yl)propanoate] | 
8 | 4 to 16 (≈ 16.2 to 64.7 µM) | 2 to 8 (≈ 8.09 to 32.4 µM) | Cc1nn(-c2ccc([N+](=O)[O-])cc2O)c(C)c1C [Example 32, 5-Nitro-2-(3,4,5-trimethyl-1H-pyrazol-1-yl)phenol] | 
9 | 4 to 16 (≈ 18.4 to 73.6 µM) | 2 to 8 (≈ 9.21 to 36.8 µM) | Cc1nn(-c2ccc(N)cc2O)c(C)c1C [Example 34, 5-Amino-2-(3,4,5-trimethyl-1H-pyrazol-1-yl)phenol] | 
10 | 32 to 64 (≈ 130 to 260 µM) |  | Cc1nn(-c2ccc(C(=O)O)cc2O)c(C)c1C [Example 40, 3-Hydroxy-4-(3,4,5-trimethyl-1H-pyrazol-1-yl)benzene carboxylic acid] | < 50
11 | 32 to 64 (≈ 120 to 241 µM) | 16 to 32 (≈ 60.2 to 120 µM) | Cc1nn(-c2ccc(C(N)=O)cc2O)c(C)c1Cl [Example 42, 4-(4-Chloro-3,5-dimethyl-1H-pyrazol-1-yl)-3-hydroxybenzamide] | 
12 | 4 to 16 (≈ 18.4 to 73.6 µM) | 2 to 8 (≈ 9.21 to 36.8 µM) | CNc1ccc(-n2nc(C)cc2C)c(O)c1 [Example 48, 2-(3,5-Dimethyl-1H-pyrazol-1-yl)-5-methylaminophenol] | 
13 | 4 to 16 (≈ 15.6 to 62.4 µM) | 2 to 8 (≈ 7.81 to 31.2 µM) | Cc1cc(C)n(-c2ccc(C(F)(F)F)cc2O)n1 [Example 50, 2-(3,5-Dimethyl-1H-pyrazol-1-yl)-5-trifluoromethylphenol] | 
14 | 32 to 64 (≈ 158 to 316 µM) |  | Cc1cc(C)n(-c2cccc(C)c2O)n1 [Example 51, 2-(3,5-dimethyl-1H-pyrazol-1-yl)-6-methylphenol] | < 50

More lines, now with the values behind:

Row | Structure (SMILES) | MIC [1] [µg/mL] | MIC [2] [µg/mL] | inhibition of growth at 32 µg/mL [2] [%]
15 | Cc1cc(C)n(-c2ccccc2O)n1 [Example 1, 2-(3,5-Dimethyl-1H-pyrazol-1-yl)phenol] | 4 to 16 (≈ 21.3 to 85 µM) | 2 to 8 (≈ 10.6 to 42.5 µM) | 
16 | Cc1cc(C(F)(F)F)nn1-c1ccccc1O [Example 5, 2-(5-Methyl-3-trifluoromethyl-1H-pyrazol-1-yl)phenol] | 32 to 64 (≈ 132 to 264 µM) | 16 to 32 (≈ 66.1 to 132 µM) | 
17 | Oc1ccccc1-n1nc(C(F)(F)F)cc1C(F)(F)F [Example 6, 2-(3,5-Bistrifluoromethyl-1H-pyrazol-1-yl)phenol] | > 64 | 16 to 32 (≈ 54 to 108 µM) | 
18 | Cc1ccn(-c2ccccc2O)n1 [Example 7, 2-(3-Methyl-1H-pyrazol-1-yl)phenol] | > 64 | 16 to 32 (≈ 91.8 to 184 µM) | 
19 | Cc1nn(-c2ccccc2O)c(C)c1C [Example 9, 2-(3,4,5-Trimethyl-1H-pyrazol-1-yl)phenol] | ≤ 2 | ≤ 1 | 
20 | Cc1cc(C)n(-c2cc(Cl)ccc2O)n1 [Example 11, 4-Chloro-2-(3,5-dimethyl-1H-pyrazol-1-yl)phenol] | 32 to 64 (≈ 144 to 287 µM) | 16 to 32 (≈ 71.9 to 144 µM) | 
21 | Cc1cc(C)n(-c2cccc(Cl)c2O)n1 [Example 12, 2-Chloro-6-(3,5-dimethyl-1H-pyrazol-1-yl)phenol] | > 64 | 16 to 32 (≈ 71.9 to 144 µM) | 
22 | Cc1nn(-c2ccccc2O)c(C)c1Cl [Example 13, 2-(4-Chloro-3,5-dimethyl-1H-pyrazol-1-yl)phenol] | 4 to 16 (≈ 18 to 71.9 µM) | ≤ 1 | 
23 | Cc1cc(C)n(-c2cc(O)ccc2O)n1 [Example 16, 2-(3,5-Dimethyl-1H-pyrazol-1-yl)benzene-1,4-diol] | > 64 | 16 to 32 (≈ 78.3 to 157 µM) | 
24 | CCc1c(C)nn(-c2ccccc2O)c1C [Example 17, 2-(4-Ethyl-3,5-dimethyl-1H-pyrazol-1-yl)phenol] | ≤ 2 | ≤ 1 | 
25 | Cc1nn(-c2cc(F)ccc2O)c(C)c1C [Example 20, 4-Fluoro-2-(3,4,5-trimethyl-1H-pyrazol-1-yl)phenol] | 32 to 64 (≈ 145 to 291 µM) | 16 to 32 (≈ 72.6 to 145 µM) | 
26 | Cc1nn(-c2ccc(F)cc2O)c(C)c1Cl [Example 21, 2-(4-Chloro-3,5-dimethyl-1H-pyrazol-1-yl)-5-fluoro phenol] | 4 to 16 (≈ 16.6 to 66.5 µM) | ≤ 1 | 
27 | CCOC(=O)c1c(C)nn(-c2ccccc2O)c1C [Example 22, Ethyl 1-(2-hydroxyphenyl)-3,5-dimethyl-1H-pyrazol-4-carboxylate] | 32 to 64 (≈ 123 to 246 µM) | 16 to 32 (≈ 61.5 to 123 µM) | 
28 | CCCCc1c(C)nn(-c2ccccc2O)c1C [Example 24, 2-(4-Butyl-3,5-dimethyl-1H-pyrazol-1-yl)phenol] | 16 to 32 (≈ 65.5 to 131 µM) | ≤ 1 | 
29 | Cc1cc(C)n(-c2ccc(F)cc2O)n1 [Example 25, 2-(3,5-Dimethyl-1H-pyrazol-1-yl)-5-fluorophenol] | 4 to 16 (≈ 19.4 to 77.6 µM) | 2 to 8 (≈ 9.7 to 38.8 µM) | 
30 | Cc1cc(C)n(-c2ccc(Cl)cc2O)n1 [Example 26, 5-Chloro-2-(3,5-dimethyl-1H-pyrazol-1-yl)phenol] | ≤ 2 | ≤ 1 | 

Row | Structure (SMILES) | MIC [1] [µg/mL] | MIC [2] [µg/mL] | inhibition of growth at 32 µg/mL [2] [%]
31 | Cc1cc(C)n(-c2ccc([N+](=O)[O-])cc2O)n1 [Example 28, 2-(3,5-Dimethyl-1H-pyrazol-1-yl)-5-nitrophenol] | 16 to 32 (≈ 68.6 to 137 µM) | 2 to 8 (≈ 8.58 to 34.3 µM) | 
32 | Cc1nn(-c2ccc(Cl)cc2O)c(C)c1C [Example 30, 5-Chloro-2-(3,4,5-trimethyl-1H-pyrazol-1-yl)phenol] | ≤ 2 | ≤ 1 | 
33 | Cc1cc(C)n(-c2ccc(N)cc2O)n1 [Example 31, 5-Amino-2-(3,5-dimethyl-1H-pyrazol-1-yl)phenol] | 4 to 16 (≈ 19.7 to 78.7 µM) | 2 to 8 (≈ 9.84 to 39.4 µM) | 
34 | Cc1cc(C)n(-c2ccc(O)cc2O)n1 [Example 33, 4-(3,5-Dimethyl-1H-pyrazol-1-yl)benzene-1,3-diol] | ≤ 2 | 2 to 8 (≈ 9.79 to 39.2 µM) | 
35 | COC(=O)c1ccc(-n2nc(C)cc2C)c(O)c1 [Example 35, Methyl 4-(3,5-dimethyl-1H-pyrazol-1-yl)-3-hydroxybenzene carboxylate] | 16 to 32 (≈ 65 to 130 µM) | 16 to 32 (≈ 65 to 130 µM) | 
36 | Cc1cc(C)n(-c2c(N)cccc2O)n1 [Example 36, 3-Amino-2-(3,5-dimethyl-1H-pyrazol-1-yl)phenol] | 32 to 64 (≈ 157 to 315 µM) |  | < 50
37 | Cc1cc(C)n(-c2ccc(C(=O)O)cc2O)n1 [Example 37, 4-(3,5-Dimethyl-1H-pyrazol-1-yl)-3-hydroxybenzene carboxylic acid] | 4 to 16 (≈ 17.2 to 68.9 µM) | 2 to 8 (≈ 8.61 to 34.4 µM) | 
38 | Cc1cc(C)n(-c2ccc(C(=O)N(C)C)cc2O)n1 [Example 38, 4-(3,5-Dimethyl-1H-pyrazol-1-yl)-3-hydroxy-N,N-dimethylbenzamide] | 4 to 16 (≈ 15.4 to 61.7 µM) | 16 to 32 (≈ 61.7 to 123 µM) | 
39 | Cc1nn(-c2ccc(C(N)=O)cc2O)c(C)c1C [Example 41, 3-Hydroxy-4-(3,4,5-trimethyl-1H-pyrazol-1-yl)benzamide] | 32 to 64 (≈ 130 to 261 µM) |  | 50 to 80
40 | Cc1cc(C)n(-c2c(O)cccc2O)n1 [Example 43, 2-(3,5-Dimethyl-1H-pyrazol-1-yl)benzene-1,3-diol] | 32 to 64 (≈ 157 to 313 µM) |  | < 50
41 | Cc1ccc(-n2nc(C)cc2C)c(O)c1 [Example 44, 2-(3,5-Dimethyl-1H-pyrazol-1-yl)-5-methylphenol] | ≤ 2 | ≤ 1 | 
42 | COc1ccc(-n2nc(C)cc2C)c(O)c1 [Example 45, 2-(3,5-Dimethyl-1H-pyrazol-1-yl)-5-methoxyphenol] | ≤ 2 | ≤ 1 | 
43 | Cc1cc(C)n(-c2c(C)cccc2O)n1 [Example 46, 2-(3,5-Dimethyl-1H-pyrazol-1-yl)-3-methylphenol] | 32 to 64 (≈ 158 to 316 µM) |  | < 50
44 | Cc1cc(C)n(-c2ccc(CO)cc2O)n1 [Example 47, 2-(3,5-Dimethyl-1H-pyrazol-1-yl)-5-hydroxymethylphenol] | 4 to 16 (≈ 18.3 to 73.3 µM) | 2 to 8 (≈ 9.16 to 36.7 µM) | 
45 | Cc1ccc(O)c(-n2nc(C)cc2C)c1 [Example 49, 2-(3,5-Dimethyl-1H-pyrazol-1-yl)-4-methylphenol] | 32 to 64 (≈ 158 to 316 µM) |  | < 50
